Experimental findings from patent publication US20110191867A1 are described below.

This assay deals with serum antibodies of test subjects.

“Biotin-aminocaproyl-CRSKVNGQCG-NH4 [Peptide 2C]”: the serum reactions entry was “Strongest reactivities”.
